The results in this text go back to US5380834A, “Immuno-suppressive agent” (Ishihara Sangyo Kaisha Ltd., priority 1992, dated 1995).

≈ marks a conversion by molar mass, not a printed value.

One assay relates to murine thymocytes. Description: Effects on the mitogenic response by murine thymocytes (Con A stimulation, 3H-TdR uptake). Format: cell-based, BALB/c murine. Conditions: Mus musculus, Thymocyte; BALB/c thymocytes, Con A 5 μg/ml, 48 hours, 3H-TdR uptake; read-out: IC50 value, a (mitogenic response of murine thymocytes). Here is the method: Using BALB/c murine thymocytes, the effect of the compound of the formula (I) on the mitogenic response of lymphocytes to the stimulation by concanavalin A (hereinafter referred to simply as Con A, Product No. L-1000, manufactured by Vector Laboratories) was studied. Namely, 4×10^5 murine thymocytes were cultured for 48 hours on a microplate with 96 wells in a RPMI1640 solution containing 10% of a fetal bovine serum (hereinafter referred to simply as a 10% FCS-RPMI solution) together with Con A (5 μg/ml) and the compound of the formula (I) (in an incubator, 5% CO2, at 37° C.). Then, 0.5 μCi of ^3 H-thymidine (hereinafter referred to simply as ^3 H-TdR) was added thereto, and the mixture was further cultured for 4 hours. Then, cells were collected by a cell harvester, and the radioactivity (dpm) of ^3 H-TdR uptaken into cells was measured. Such measured amounts of ^3 H-TdR uptaken into the cells were used as indices of the mitogenic response of the murine thymocytes, and the radioactivity at each concentration (from 0.001 to 1,000 μg/ml) of the compound of the formula (I) was compared with the control value treated solely by Con A, to calculate IC50 value. In these Tables 12 and 13, the results of murine thymocytes are shown by (a).
For the basic procedure of this test, reference was made to Selected methods in cellular immunology, p. 144-146 (translated by Katsuyuki Imai et al., published by Rikogakusha, (1982)).

In assay [1] the test system is murine mixed lymphocyte reaction (spleen cells of BALB/c and C57BL/6 mice). Nature of the assay: Effects on the murine mixed lymphocyte reaction (3H-TdR uptake). Particulars: Mus musculus, BALB/c + C57BL/6 spleen cells, 48 hours, read-out: IC50 value, b (murine mixed lymphocyte reaction). Format: cell-based. Here is the method: Using spleen cells of BALB/c and C57BL/6 mice, the effect of the compound of the formula (I) on the murine mixed lymphocyte reaction in both sides, was studied. Namely, spleen cells of both types of mice were mixed in an equal amount of 5×10^5 cells each, and the mixed cells were cultured together with the compound of the formula (I) for 48 hours on a microplate with 96 wells by a 10% FCS-RPMI solution (in an incubator, 5% CO2, at 37° C.). Then, 0.5 μCi of ^3 H-TdR was added thereto, and the mixture was further cultured for from 16 to 18 hours. Then, cells were collected by a cell harvester, and the radioactivity (dpm) of ^3 H-TdR uptaken into the cells, was measured. Such measured amounts of ^3 H-TdR uptaken into the cells were used as indices for the mixed lymphocyte reaction, and the radioactivity at each concentration (from 0.001 to 1,000 μg/ml) of the compound of the formula (I) was compared with the non-treated control value, to calculate the Ic50 value.
For the basic procedure for this test, reference was made to Selected methods in cellular immunology, p. 147-149 (translated by Katsuyuki Imai et al., published by Rikogakusha, (1982)).

Another assay relates to murine bone mallow cells. Description: Effects on the murine bone mallow cells (proliferation, 3H-TdR uptake). Format: cell-based, BALB/c mouse. Conditions: Mus musculus, bone marrow cells; 20% L929 culture supernatant, 48 hours, 3H-TdR uptake; Tables 12-15; read-out: IC50 value, c (murine bone mallow cells). The procedure:
Bone mallow cells were removed from the femur of a BALB/c mouse and suspended in a 10% FCS-RPMI solution. The cell suspension was put into a plastic Petri dish having a diameter of 10 cm and left to stand still (in an incubator, 5% CO2, at 37° C.). Two hours later, only floating cells were recovered, and adhesion cells were removed. 1×10^5 floating cells were cultured for 48 hours together with a 20% culture supernatant of L929 fibroblastoma and the compound of the formula (I) on a microplate with 96 wells by a 10% FCS-RPMI solution (in an incubator, 5% CO2, at 37° C.). Then, 0.5 μCi of ^3 H-TdR was added thereto, and the mixture was further cultured for 4 hours. Then, cells were collected by a cell harvester, and the radioactivity (dpm) of ^3 H-TdR uptaken into the cells, was measured. Such measured amounts of ^3 H-TdR uptaken into the cells were used as indices for the proliferation of bone mallow cells, and the radioactivity at each concentration (from 0.001 to 1,000 μg/ml) of the compound of the formula (I) was compared with the control value where the L929 culture supernatant was added alone, to calculate the IC50 value. In these Tables 12 and 13, the results of the bone mallow cells are shown by (c).
For the basic procedure of this test, reference was made to Seikagakujikken Koza compiled by Japan Biochemistry Association, Vol. 5, p. 266-270 (published by Tokyo Kagaku Dojin in 1986).

The test system of assay [2] is IgGl antibody production from murine spleen B cells. Nature of the assay: Effects on the IgGl antibody production from murine spleen cells (LPS + IL4). It counts as cell-based, BALB/c mouse. Conditions: Mus musculus, B-cell, 168 h; spleen B cells, LPS 10 μg/ml, IL4 100 U/ml, 7 days, enzyme-immunoassay; read-out: IC50 value, IgGl antibody production. The procedure:
(§1) Using murine spleen B cells, the effects of the compound of the formula (I) on the IgGl, IgM and IgE antibody production induced by the stimulation by LPS (lipopolysaccharide; Product No. 520.02051, manufactured by Wako Junyaku) and IL4 (interleukin 4), were studied. Namely, spleen cells of a BALB/c mouse were treated with a murine anti-Thy-1 antibody (obtained from Chiba University) and a rabbit complement (Product No. 3051, manufactured by cedarlane) to remove T cells, and 3×10^5 spleen B cells were cultured for 7 days together with 10 μg/ml of LPS, 100 U/ml of mouse-recombinant IL4 (Product No. MIL-4C, manufactured by Genzyme) and each concentration (from […]) of the compound of the formula (I) on a microplate with 96 wells by a 10% FCS-RPMI solution (in an incubator, 5% CO2, at 37° C.).
(§2) For the basic procedure of this test, reference was made to The Journal of Immunology, Vol. 136, p. 4538, (1986).
(§3) The amount of each antibody in the cell culture supernatant hereby obtained, was measured by the following enzyme-immunoassay. Firstly, on a microplate with 96 wells, 1 μg/ml of a rabbit anti-mouse IgGl antibody (Product No. 36243, manufactured by Cappel), 1 μg/ml of a goat anti-mouse IgM antibody (Product No. 0611-0201, manufactured by Cappel) or 10 μg/ml of a rat anti-mouse IgE monoclonal antibody (Product No. LO-ME-2, manufactured by Experimental Immunology) was coated (50 μl/well, at room temperature for 60 minutes), and then a nonspecific bond was blocked by a 0.1% bovine serum albumin-containing 10 mM sodium phosphate buffer (pH 7.2) (at room temperature for 60 minutes). Then, the above-mentioned cell culture supernatant or its diluted solution was added in an amount of 50 μl/well and reacted at room temperature for 60 minutes. Further, an alkaline phosphatase-labeled rabbit anti-mouse IgGl antibody (Product No. 61-0122, manufactured by Zymet) diluted 1,000 times, an alkaline phosphatase-labeled rabbit anti-mouse IgM antibody (Product No. 61-6822, manufactured by Zymet) diluted 2,000 times, or an alkaline phosphatase-labeled goat anti-mouse IgE antibody (Product No. PA-284, manufactured by Binding Site) diluted 500 times was added in an amount of 50 μl/well and reacted at room temperature for 60 minutes. 100 μl/well of a 10% diethanol amine buffer solution (pH 9.8) containing p-nitrophenyl phosphate as an enzyme substrate, was reacted, and the absorbance at 405 nm was measured. The amount of each antibody was calculated from the calibration curve of each standard antibody, and the IC50 value of the compound of the formula (I) on the antibody production was calculated using as the control value a value obtained in the absence of the compound of the formula (I).

Assay [3] concerns IgM antibody production from murine spleen B cells. Nature of the assay: Effects on the IgM antibody production from murine spleen cells (LPS + IL4). Format: cell-based, BALB/c mouse. Particulars: Mus musculus, B-cell, 168 h; spleen B cells, LPS 10 μg/ml, IL4 100 U/ml, 7 days, enzyme-immunoassay; read-out: IC50 value, IgM antibody production. Here is the method: as §1, §2, §3
Assay [4] relates to IgE antibody production from murine spleen B cells. Nature of the assay: Effects on the IgE antibody production from murine spleen cells (LPS + IL4). Conditions: Mus musculus, B-cell, 168 h; spleen B cells, LPS 10 μg/ml, IL4 100 U/ml, 7 days, enzyme-immunoassay; read-out: IC50 value, IgE antibody production. Format: cell-based, BALB/c mouse. The procedure: as §1, §2, §3

Consider `CCCC[C@]1(O)C=C[C@H]2CO[C@@H]1O2` [Compound 30], for which the IC50 in the assay on murine thymocytes was 110 µg/mL (≈ 597 µM); in assay [1], 540 µg/mL; with murine bone mallow cells it was 190 µg/mL (≈ 1030 µM); in assay [2], 190 µg/mL; in assay [3], 150 µg/mL; in assay [4], 24 µg/mL.

As for `CCCCO[C@H]1C=C[C@H]2CO[C@@H]1O2` [Compound 40], the IC50 in the assay with murine thymocytes was 160 µg/mL (≈ 868 µM); in assay [1], greater than 1000 µg/mL; in the assay with murine bone mallow cells, greater than 1000 µg/mL; in assay [2], 0.067 µg/mL; in assay [3], 110 µg/mL; in assay [4], 0.0026 µg/mL.

As to `C/C=C/C(=O)O[C@H]1C=C[C@H]2CO[C@@H]1O2` [Compound 3], the half-inhibitory concentration (IC50) in the assay with murine thymocytes was 0.0044 µg/mL (≈ 0.0224 µM); in assay [1] it was 0.0044 µg/mL; in the assay with murine bone mallow cells, 130 µg/mL (≈ 663 µM); in assay [2], 2.4 µg/mL; in assay [3], less than 0.001 µg/mL; in assay [4] it was 0.024 µg/mL.

For the compound `CCCCCCCCCC(=O)O[C@H]1C=C[C@H]2CO[C@@H]1O2` [Compound 12, 1,6-anhydro-2-O-decanoyl-3,4-dideoxy-β-D-threo-hex-3-enopyranose], the IC50 with murine thymocytes was 110 µg/mL (≈ 390 µM); in assay [1] it was 560 µg/mL; in the assay on murine bone mallow cells, 560 µg/mL (≈ 1980 µM); in assay [2], 24 µg/mL; in assay [3] it was 0.11 µg/mL; in assay [4], 28 µg/mL.

`CC(=O)Oc1ccccc1C(=O)O[C@H]1C=C[C@H]2CO[C@@H]1O2` [Compound 11]: the IC50 in the assay on murine thymocytes came to 110 µg/mL (≈ 379 µM); in assay [1] it was 170 µg/mL; in the assay on murine bone mallow cells it was 210 µg/mL (≈ 723 µM); in assay [2] it was 16 µg/mL; in assay [3], 28 µg/mL; in assay [4], 32 µg/mL.

As for `O=C(O[C@H]1C=C[C@H]2CO[C@@H]1O2)c1ccc(Cl)cc1` [Compound 16], the IC50 with murine thymocytes is 91 µg/mL (≈ 341 µM); in assay [1], 190 µg/mL; in the assay with murine bone mallow cells, 170 µg/mL (≈ 637 µM); in assay [2], 41 µg/mL; in assay [3], 20 µg/mL; in assay [4] it was 50 µg/mL.

`CCCCCCCCCCCCCCCC(=O)O[C@@H]1C=C[C@H]2CO[C@@H]1O2` [Compound 109]: the half-inhibitory concentration (IC50) is 550 µg/mL (≈ 1500 µM) with murine thymocytes; 740 µg/mL in assay [1]; greater than 1000 µg/mL with murine bone mallow cells; less than 0.1 µg/mL in assay [2]; 31 µg/mL in assay [3]; less than 0.1 µg/mL in assay [4].

In the case of `C=C[C@]1(O)C=C[C@H]2CO[C@@H]1O2` [Compound 27, 1,6-anhydro-3,4-dideoxy-2-C-vinyl-β-D-threo-hex-3-enopyranose], the IC50 came out at 49 µg/mL (≈ 318 µM) with murine thymocytes; 180 µg/mL in assay [1]; 44 µg/mL (≈ 285 µM) in the assay on murine bone mallow cells; 34 µg/mL in assay [2]; 36 µg/mL in assay [3]; 24 µg/mL in assay [4].

Regarding `C1=C[C@H]2CO[C@H](O2)[C@H]1OCc1ccccc1` [Compound 48], the IC50 in the assay on murine thymocytes was 120 µg/mL (≈ 550 µM); in assay [1], greater than 1000 µg/mL; with murine bone mallow cells it was 430 µg/mL (≈ 1970 µM); in assay [2] it was 34 µg/mL; in assay [3], 35 µg/mL; in assay [4] it was 41 µg/mL.

Take `O=C(O[C@H]1C=C[C@H]2CO[C@@H]1O2)C1CCCCC1` [Compound 4]: the IC50 was 450 µg/mL (≈ 1890 µM) with murine thymocytes; 140 µg/mL in assay [1]; 160 µg/mL (≈ 671 µM) with murine bone mallow cells; 100 µg/mL in assay [2]; 56 µg/mL in assay [3]; 11 µg/mL in assay [4].

As to `CC(=O)O[C@@]1(C)C=C[C@H]2CO[C@@H]1O2` [Compound 32, 2-O-acetyl-1,6-anhydro-3,4-dideoxy-2-C-methyl-β-D-threo-hex-3-enopyranose], the IC50 with murine thymocytes is 320 µg/mL (≈ 1740 µM); in assay [1] it was 540 µg/mL; in the assay with murine bone mallow cells it was 540 µg/mL (≈ 2930 µM); in assay [2], 400 µg/mL; in assay [3], 350 µg/mL; in assay [4], 2.8 µg/mL.

Consider `CCCCCC(=O)O[C@H]1C=C[C@H]2CO[C@@H]1O2` [Compound 6], for which the IC50 was 250 µg/mL (≈ 1100 µM) in the assay with murine thymocytes; 540 µg/mL in assay [1]; 270 µg/mL (≈ 1190 µM) in the assay with murine bone mallow cells; 450 µg/mL in assay [2]; 330 µg/mL in assay [3]; 210 µg/mL in assay [4].

For `O=C(Oc1ccccc1)O[C@H]1C=C[C@H]2CO[C@@H]1O2` [Compound 22], the IC50 with murine thymocytes was 300 µg/mL (≈ 1210 µM); in assay [1], 130 µg/mL; in the assay on murine bone mallow cells, greater than 1000 µg/mL; in assay [2], 670 µg/mL; in assay [3] it was 230 µg/mL; in assay [4] it was 4 µg/mL.

Usually IC50 stands for the concentration that inhibits the measured activity by half.
